{
  "source": "patent US9695155B2",
  "about": "“Herbicidal substituted pyrimidinyloxy benzene compounds” (E. I. DU PONT DE NEMOURS AND COMPANY, priority 2013, dated 2017)",
  "key": {"[1]": {"system": "barnyardgrass", "assay": "Test A preemergence", "assay_type": "in vivo, Echinochloa crus-galli", "settings": "for Plant response rating, Barnyardgrass: 0 to 100 scale where 0 is no effect and 100 is complete control", "method_in_brief": "(§1)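 Scoring: eye-based comparison with untreated controls, 0 for no effect through 100 for complete control, at about day 10. Treatments: directed soil spray preemergence; foliar spray postemergence on 2–10 cm plants at the one- to two-leaf stage. Medium: loam soil with sand.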"}, "[2]": {"system": "kochia", "assay": "Test A preemergence", "assay_type": "in vivo, Kochia scoparia", "settings": "for Plant response rating, Kochia: 0 to 100 scale where 0 is no effect and 100 is complete control", "method_in_brief": "as §1"}, "[3]": {"system": "ragweed", "assay": "Test A preemergence", "assay_type": "in vivo, Ambrosia elatior", "settings": "for Plant response rating, Ragweed: 0 to 100 scale where 0 is no effect and 100 is complete control", "method_in_brief": "as §1"}, "[4]": {"system": "Italian ryegrass", "assay": "Test A preemergence", "assay_type": "in vivo, Lolium multiflorum", "settings": "for Plant response rating, Ryegrass, Italian: 0 to 100 scale where 0 is no effect and 100 is complete control", "method_in_brief": "as §1"}, "[5]": {"system": "giant foxtail", "assay": "Test A preemergence", "assay_type": "in vivo, Setaria faberii", "settings": "for Plant response rating, Foxtail, Giant: 0 to 100 scale where 0 is no effect and 100 is complete control", "method_in_brief": "as §1"}, "[6]": {"system": "pigweed", "assay": "Test A preemergence", "assay_type": "in vivo, Amaranthus retroflexus", "settings": "for Plant response rating, Pigweed: 0 to 100 scale where 0 is no effect and 100 is complete control", "method_in_brief": "as §1"}, "[7]": {"system": "barnyardgrass", "assay": "Test A postemergence", "assay_type": "in vivo, Echinochloa crus-galli", "method_in_brief": "as §1"}, "[8]": {"system": "kochia", "assay": "Test A postemergence", "assay_type": "in vivo, Kochia scoparia", "method_in_brief": "as §1"}, "[9]": {"system": "ragweed", "assay": "Test A postemergence", "assay_type": "in vivo, Ambrosia elatior", "settings": "for Plant response rating, Ragweed: 31 g ai/ha, 0 to 100 scale, 0 no effect, 100 complete control", "method_in_brief": "as §1"}, "[10]": {"system": "Italian ryegrass", "assay": "Test A postemergence", "assay_type": "in vivo, Lolium multiflorum", "settings": "for Plant response rating, Ryegrass, Italian: 31 g ai/ha, 0 to 100 scale, 0 no effect, 100 complete control", "method_in_brief": "as §1"}, "[11]": {"system": "giant foxtail", "assay": "Test A postemergence", "assay_type": "in vivo, Setaria faberii", "method_in_brief": "as §1"}, "[12]": {"system": "pigweed", "assay": "Test A postemergence", "assay_type": "in vivo, Amaranthus retroflexus", "settings": "for Plant response rating, Pigweed: 31 g ai/ha, 0 to 100 scale, 0 no effect, 100 complete control", "method_in_brief": "as §1"}, "[13]": {"system": "wheat", "assay": "Test A postemergence", "assay_type": "in vivo, Triticum aestivum", "settings": "for Plant response rating, Wheat: 31 g ai/ha, 0 to 100 scale, 0 no effect, 100 complete control", "method_in_brief": "as §1"}, "[14]": {"system": "corn", "assay": "Test A postemergence", "assay_type": "in vivo, Zea mays", "method_in_brief": "as §1"}, "[15]": {"system": "blackgrass", "assay": "Test A postemergence", "assay_type": "in vivo, Alopecurus myosuroides", "method_in_brief": "as §1"}, "[16]": {"system": "galium", "assay": "Test A postemergence", "assay_type": "in vivo, Galium aparine", "method_in_brief": "as §1"}, "[17]": {"system": "rice", "assay": "Test B flooded paddy test", "assay_type": "in vivo, Oryza sativa", "settings": "Flood, 250 g ai/ha; 0 to 100 scale where 0 is no effect and 100 is complete control", "method_in_brief": "(§2)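 2-leaf stage plants; pots flooded to 3 cm, compound added to paddy water, depth maintained. Greenhouse 13–15 d. Visual rating vs untreated controls, 0 (no effect) to 100 (complete control); dash = no result.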"}, "[18]": {"system": "sedge, umbrella", "assay": "Test B flooded paddy test", "assay_type": "in vivo, Cyperus difformis", "settings": "Flood, 250 g ai/ha; 0 to 100 scale where 0 is no effect and 100 is complete control", "method_in_brief": "as §2"}, "[19]": {"system": "Heteranthera limosa", "assay": "Test B flooded paddy test", "assay_type": "in vivo", "settings": "Flood, 250 g ai/ha; 0 to 100 scale where 0 is no effect and 100 is complete control", "method_in_brief": "as §2"}, "[20]": {"system": "barnyardgrass", "assay": "Test B flooded paddy test", "assay_type": "in vivo, Echinochloa crus-galli", "settings": "Flood, 250 g ai/ha; 0 to 100 scale where 0 is no effect and 100 is complete control", "method_in_brief": "as §2"}, "[21]": {"settings": "31 g ai/ha, 0 to 100 scale, 0 no effect, 100 complete control"}, "[22]": {"settings": "125 g ai/ha, 0 to 100 scale where 0 is no effect and 100 is complete control"}, "[23]": {"settings": "31 g ai/ha, visual, approximately 10 days"}},
  "data": [
    {"smiles": "FCCc1cn(-c2c(F)cccc2Oc2ncc(Cl)cn2)nn1", "note": "[Compound 108]", "values": [
      {"measurement": "Barnyardgrass plant response rating (0 to 100 scale)", "setting": "[1]; 31 g ai/ha", "value": 10},
      {"measurement": "Plant response rating, Barnyardgrass", "setting": "[1]; 125 g ai/ha", "value": 70},
      {"measurement": "Kochia plant response rating (0 to 100 scale)", "setting": "[2]; 31 g ai/ha", "value": 40},
      {"measurement": "Plant response rating, Kochia", "setting": "[2]; 125 g ai/ha", "value": 70},
      {"measurement": "Ragweed plant response rating (0 to 100 scale)", "setting": "[3]; 31 g ai/ha", "value": 70},
      {"measurement": "Plant response rating, Ragweed", "setting": "[3]; 125 g ai/ha", "value": 80},
      {"measurement": "Ryegrass, Italian plant response rating (0 to 100 scale)", "setting": "[4]; 31 g ai/ha", "value": 0},
      {"measurement": "Plant response rating, Ryegrass, Italian", "setting": "[4]; 125 g ai/ha", "value": 30},
      {"measurement": "Foxtail, Giant plant response rating (0 to 100 scale)", "setting": "[5]; 31 g ai/ha", "value": 20},
      {"measurement": "Plant response rating, Foxtail, Giant", "setting": "[5]; 125 g ai/ha", "value": 90},
      {"measurement": "Pigweed plant response rating (0 to 100 scale)", "setting": "[6]; 31 g ai/ha", "value": 90},
      {"measurement": "Plant response rating, Pigweed", "setting": "[6]; 125 g ai/ha", "value": 100},
      {"measurement": "Plant response rating, Barnyardgrass", "setting": "[7]; [21]", "value": 20},
      {"measurement": "Plant response rating, Barnyardgrass", "setting": "[7]; [22]", "value": 60},
      {"measurement": "Plant response rating, Kochia", "setting": "[8]; [21]", "value": 70},
      {"measurement": "Plant response rating, Kochia", "setting": "[8]; [22]", "value": 90},
      {"measurement": "Plant response rating, Ragweed", "setting": "[9]", "value": 20},
      {"measurement": "Plant response rating, Ryegrass, Italian", "setting": "[10]", "value": 0},
      {"measurement": "Plant response rating, Foxtail, Giant", "setting": "[11]; [21]", "value": 20},
      {"measurement": "Plant response rating, Foxtail, Giant", "setting": "[11]; [22]", "value": 70},
      {"measurement": "Plant response rating, Pigweed", "setting": "[12]", "value": 50},
      {"measurement": "Plant response rating, Wheat", "setting": "[13]", "value": 10},
      {"measurement": "Plant response rating, Corn", "setting": "[14]; [21]", "value": 20},
      {"measurement": "Plant response rating, Corn", "setting": "[14]; [22]", "value": 30},
      {"measurement": "Plant response rating, Blackgrass", "setting": "[15]; [21]", "value": 30},
      {"measurement": "Plant response rating, Blackgrass", "setting": "[15]; [22]", "value": 80},
      {"measurement": "Plant response rating, Galium", "setting": "[16]; [21]", "value": 70},
      {"measurement": "Plant response rating, Galium", "setting": "[16]; [22]", "value": 90},
      {"measurement": "Plant response rating, Rice", "setting": "[17]", "value": 35},
      {"measurement": "Plant response rating, Sedge, Umbrella", "setting": "[18]", "value": 80},
      {"measurement": "Plant response rating, Ducksalad", "setting": "[19]", "value": 85},
      {"measurement": "Plant response rating, Barnyardgrass", "setting": "[20]", "value": 0}
    ]},
    {"smiles": "CCCOc1cnn(-c2c(F)cccc2Oc2ncc(F)cn2)c1", "note": "[Compound 153]", "values": [
      {"measurement": "Plant response rating, Barnyardgrass", "setting": "[1]; [23]", "value": 0},
      {"measurement": "Plant response rating, Barnyardgrass", "setting": "[1]; 125 g ai/ha", "value": 0},
      {"measurement": "Plant response rating, Kochia", "setting": "[2]; [23]", "value": 0},
      {"measurement": "Plant response rating, Kochia", "setting": "[2]; 125 g ai/ha", "value": 0},
      {"measurement": "Plant response rating, Ragweed", "setting": "[3]; [23]", "value": 0},
      {"measurement": "Plant response rating, Ragweed", "setting": "[3]; 125 g ai/ha", "value": 0},
      {"measurement": "Plant response rating, Ryegrass, Italian", "setting": "[4]; [23]", "value": 0},
      {"measurement": "Plant response rating, Ryegrass, Italian", "setting": "[4]; 125 g ai/ha", "value": 0},
      {"measurement": "Plant response rating, Foxtail, Giant", "setting": "[5]; [23]", "value": 0},
      {"measurement": "Plant response rating, Foxtail, Giant", "setting": "[5]; 125 g ai/ha", "value": 0},
      {"measurement": "Plant response rating, Pigweed", "setting": "[6]; [23]", "value": 0},
      {"measurement": "Plant response rating, Pigweed", "setting": "[6]; 125 g ai/ha", "value": 0},
      {"measurement": "Plant response rating, Barnyardgrass", "setting": "[7]; [21]", "value": 0},
      {"measurement": "Barnyardgrass plant response rating", "setting": "[7]; [22]", "value": 0},
      {"measurement": "Plant response rating, Kochia", "setting": "[8]; [21]", "value": 0},
      {"measurement": "Kochia plant response rating", "setting": "[8]; [22]", "value": 0},
      {"measurement": "Plant response rating, Ragweed", "setting": "[9]", "value": 0},
      {"measurement": "Ragweed plant response rating", "setting": "[9]; [22]", "value": 0},
      {"measurement": "Plant response rating, Ryegrass, Italian", "setting": "[10]", "value": 0},
      {"measurement": "Ryegrass, Italian plant response rating", "setting": "[10]; [22]", "value": 0},
      {"measurement": "Plant response rating, Foxtail, Giant", "setting": "[11]; [21]", "value": 0},
      {"measurement": "Foxtail, Giant plant response rating", "setting": "[11]; [22]", "value": 0},
      {"measurement": "Plant response rating, Pigweed", "setting": "[12]", "value": 0},
      {"measurement": "Pigweed plant response rating", "setting": "[12]; [22]", "value": 0},
      {"measurement": "Plant response rating, Wheat", "setting": "[13]", "value": 0},
      {"measurement": "Wheat plant response rating", "setting": "[13]; [22]", "value": 0},
      {"measurement": "Plant response rating, Corn", "setting": "[14]; [21]", "value": 0},
      {"measurement": "Corn plant response rating", "setting": "[14]; [22]", "value": 0},
      {"measurement": "Plant response rating, Blackgrass", "setting": "[15]; [21]", "value": 0},
      {"measurement": "Blackgrass plant response rating", "setting": "[15]; [22]", "value": 0},
      {"measurement": "Plant response rating, Galium", "setting": "[16]; [21]", "value": 0},
      {"measurement": "Galium plant response rating", "setting": "[16]; [22]", "value": 0},
      {"measurement": "Plant response rating, Rice", "setting": "[17]", "value": 0},
      {"measurement": "Plant response rating, Sedge, Umbrella", "setting": "[18]", "value": 0},
      {"measurement": "Plant response rating, Ducksalad", "setting": "[19]", "value": 30},
      {"measurement": "Plant response rating, Barnyardgrass", "setting": "[20]", "value": 0}
    ]}
  ]
}
